Here are results for 15 molecules from publication PMC3158291 (Journal of medicinal chemistry, 2011).

The subject of series [1] is Mycobacterium tuberculosis (Mtb), replicating. The series is described as follows: Minimum Inhibitory Concentration. In kind it is cell-based. The settings on record: for Mtb MIC99 μM (±SD): replicating (aerobic) Mtb, average ± SD of multiple measurements; for MIC99: Mycobacterium tuberculosis, read-out: Mtb MIC99 μM (±SD).
Series [2] relates to Mycobacterium tuberculosis (Mtb), non-replicating. The series is described as follows: Minimum Anaerobicidal Concentration. The settings on record: non-replicating (anaerobic) Mtb; average ± SD of multiple measurements. It is filed as cell-based.
A short description of series [3]: Stability in mouse liver microsomes. In kind it is in vitro ADME. The settings on record: calculated from intrinsic clearance in mouse liver microsomes, method of ref 21.
A short description of series [4]: In vivo pharmacokinetic study, intravenous 5mg/kg. The settings on record: mice, intravenous injection at 5mg/kg.

In brackets after ≈: the same amount, converted by molar mass.

Turning to “2−((S)−2−Nitro−6,7−dihydro−5H−imidazo[2,1−b][1,3]oxazin−6−ylamino)−2−(4−trifluoromethoxyphenyl)−ethanol [Compound 17i]”, the “Mtb MIC99 μM (±SD)” value in series [1] amounted to 0.13 ± 0.04 µM. The “Mtb MAC μM (±SD)” value in series [2] came out at 23 ± 6 µM.

As to `CCC(=O)N(Cc1ccc(OC(F)(F)F)cc1)[C@@H]1COc2nc([N+](=O)[O-])cn2C1` [Compound 4b, (S)-N-(2-Nitro-6,7-dihydro-5H-imidazo[2,1-b][1,3]oxazin-6-yl)-N-(4-trifluoromethoxybenzyl)-propionamide], the “Mtb MIC99 μM (±SD)” value in series [1] was “Insoluble”.

`CN(Cc1ccc(OC(F)(F)F)cc1)[C@@H]1COc2nc([N+](=O)[O-])cn2C1` [Compound 5a, (S)-N-Methyl-2-nitro-N-4-trifluoromethoxybenzyl-6,7-dihydro-5H-imidazo[2,1-b][1,3]oxazin-6-amine]: in series [3], the “Predicted hepatic extraction ratio” value is recorded as 85%.

`CCCN(Cc1ccc(OC(F)(F)F)cc1)[C@@H]1COc2nc([N+](=O)[O-])cn2C1` [Compound 5b, (S)-2-Nitro-N-propyl-N-(4-trifluoromethoxybenzyl)-6,7-dihydro-5H-imidazo[2,1-b][1,3]oxazin-6-amine]: the “Predicted hepatic extraction ratio” value in series [3] is listed as 95%.

`CC(C)N(Cc1ccc(OC(F)(F)F)cc1)[C@@H]1COc2nc([N+](=O)[O-])cn2C1` [Compound 5c, (S)-N-Isopropyl-2-nitro-N-(4-trifluoromethoxybenzyl)-6,7-dihydro-5H-imidazo[2,1-b][1,3]oxazin-6-amine]: the “Predicted hepatic extraction ratio” value in series [3] is 95%.

Take `O=[N+]([O-])c1cn2c(n1)OC[C@@H](NCc1ccc(OC(F)(F)F)cc1Oc1ccccc1)C2` [Compound 32d, (S)-2-Nitro-N-(2-phenoxy-4-trifluoromethoxybenzyl)-6,7-dihydro-5H-imidazo[2,1-b][1,3]oxazin-6-amine]: the “Predicted hepatic extraction ratio” value in series [3] is on record as 90%.

As to `O=[N+]([O-])c1cn2c(n1)OC[C@@H](NCc1ccc(OC(F)(F)F)cc1OCC1CC1)C2` [Compound 32e, (S)-N-(2-Cyclopropylmethoxy-4-trifluoromethoxybenzyl)-2-nitro-6,7-dihydro-5H-imidazo[2,1-b][1,3]oxazin-6-amine], the “Predicted hepatic extraction ratio” value in series [3] is given as 97%.

`O=[N+]([O-])c1cn2c(n1)OC[C@@H](NCc1ccc(OC(F)(F)F)cc1OC1CC1)C2` [Compound 32f, (S)-N-(2-Cyclopropoxy-4-trifluoromethoxybenzyl)-2-nitro-6,7-dihydro-5H-imidazo[2,1-b][1,3]oxazin-6-amine]: in series [3], the “Predicted hepatic extraction ratio” value is 87%.

Take `O=[N+]([O-])c1cn2c(n1)OC[C@@H](NCc1ccc(OC(F)(F)F)cc1O)C2` [Compound 32g, (S)-2-((2-Nitro-6,7-dihydro-5H-imidazo[2,1-b][1,3]oxazin-6-ylamino)methyl)-5-trifluoromethoxyphenol]: the “Predicted hepatic extraction ratio” value in series [3] was 81%.

Turning to `O=[N+]([O-])c1cn2c(n1)OC[C@@H](NCc1ccc(OC(F)(F)F)cc1F)C2` [Compound 41a, (S)-N-(2-Fluoro-4-(trifluoromethoxy)benzyl)-2-nitro-6,7-dihydro-5H-imidazo[2,1-b][1,3]oxazin-6-amine], in series [1], the MIC99 came out at 0.13 ± 0.06 µM (≈ 0.0489 µg/mL). Besides, the “Predicted hepatic extraction ratio” value in series [3] is on record as 81%.

On to `O=[N+]([O-])c1cn2c(n1)OC[C@@H](NCc1ccc(OC(F)(F)F)cc1Cl)C2` [Compound 41b, (S)-N-(2-Chloro-4-trifluoromethoxybenzyl)-2-nitro-6,7-dihydro-5H-imidazo[2,1-b][1,3]oxazin-6-amine], for which the MIC99 in series [1] came to 0.12 ± 0.05 µM (≈ 0.0471 µg/mL). In addition, the “Predicted hepatic extraction ratio” value in series [3] is recorded as 75%.

Take `O=[N+]([O-])c1cn2c(n1)OC[C@@H](NCc1ccc(OC(F)(F)F)c(F)c1)C2` [Compound 56a, (S)-N-(3-Fluoro-4-trifluoromethoxybenzyl)-2-nitro-6,7-dihydro-5H-imidazo[2,1-b][1,3]oxazin-6-amine]: in series [4], the “in vivo clearance” value is “low to moderate clearance” and the “systemic exposure” value is “good systemic exposure”. Also, in series [3], the “Predicted hepatic extraction ratio” value was 72%.

For `O=[N+]([O-])c1cn2c(n1)OC[C@@H](NCc1ccc(OC(F)(F)F)c(Cl)c1)C2` [Compound 56b, (S)-N-(3-Chloro-4-trifluoromethoxybenzyl)-2-nitro-6,7-dihydro-5H-imidazo[2,1-b][1,3]oxazin-6-amine], in series [4], the “in vivo clearance” value was “low to moderate clearance” and the “systemic exposure” value is listed as “good systemic exposure”.

For `O=[N+]([O-])c1cn2c(n1)OC[C@@H](NCc1ccc(OC(F)(F)F)c(Oc3ccccc3)c1)C2` [Compound 56e, (S)-2-Nitro-N-(3-phenoxy-4-(trifluoromethoxy)benzyl)-6,7-dihydro-5H-imidazo[2,1-b][1,3]oxazin-6-amine], in series [3], the “Predicted hepatic extraction ratio” value is 87%.

For the molecule `O=[N+]([O-])c1cn2c(n1)OC[C@@H](NCc1ccc(OC(F)(F)F)c(O)c1)C2` [Compound 56i, (S)-5-((2-Nitro-6,7-dihydro-5H-imidazo[2,1-b][1,3]oxazin-6-ylamino)methyl)-2-(trifluoromethoxy)-phenol], in series [4], the “in vivo clearance” value is “cleared more rapidly” and the “systemic exposure” value is given as “low systemic exposure”.

In general, MIC99 refers to an inhibitory concentration at the 99% level, which refers to growth in some studies and to a panel of isolates in others.
